Measurements: patent publication US20260294922A1, “Inhibitors of JUN N-Terminal Kinases (JNK1, JNK2, and/or JNK3) and Mitogen-Activated Protein Kinases (MAPK8, MAPK9, and/or MAPK10) and Methods of Using Same” (Baylor College of Medicine, priority 2023, published 2026)
In brackets after ≈: the same amount, converted by molar mass. Entries after “also recorded” stand apart in the source; their conditions may differ.

Key:
[1] = system: immortalized human endometriotic epithelial cells (iHEEC); assay: Phosphorylation of JNK and Jun in iHEEC; type: cell-based
Description: FIG. 26A depicts the effects of CDD-2728 and CDD-3013 on phosphorylation of the JNK enzyme itself (i.e., representing MEK4 inhibition) and phosphorylation of pSer63 and pSer73 on the transcription factor Jun in immortalized human endometriotic epithelial cells (iHEEC). The HEEC cells are a well characterized cell line that are relevant for the evaluation of inflammatory endpoints and measures of epithelial-to-mesenchymal transitions (EMT). […] This is consistent with the potency relationships of CDD-2728 relative to bentamapimod observed in cytokine gene expression described above in iHEEC cells and primary human stromal endometriotic cells. […] SP600125 has been frequently described as a poorly-selective JNK-I but in this context provides additional confirmation of inhibition of the JNK target kinase for CDD-2728. […] This adds further support to the critical role of JNK-1 to the therapeutic effect of the JNK inhibitors of the disclosure.

JNK3 [2] = target: T1, JNK3 (Homo sapiens, UniProt P53779); assay: JNK3 kinase (intrinsic ATPase, Kinase-Glo) assay; type: biochemical; conditions: Table 3a; read-out: Kd JNK3
T1 sequence (P53779 whole entry): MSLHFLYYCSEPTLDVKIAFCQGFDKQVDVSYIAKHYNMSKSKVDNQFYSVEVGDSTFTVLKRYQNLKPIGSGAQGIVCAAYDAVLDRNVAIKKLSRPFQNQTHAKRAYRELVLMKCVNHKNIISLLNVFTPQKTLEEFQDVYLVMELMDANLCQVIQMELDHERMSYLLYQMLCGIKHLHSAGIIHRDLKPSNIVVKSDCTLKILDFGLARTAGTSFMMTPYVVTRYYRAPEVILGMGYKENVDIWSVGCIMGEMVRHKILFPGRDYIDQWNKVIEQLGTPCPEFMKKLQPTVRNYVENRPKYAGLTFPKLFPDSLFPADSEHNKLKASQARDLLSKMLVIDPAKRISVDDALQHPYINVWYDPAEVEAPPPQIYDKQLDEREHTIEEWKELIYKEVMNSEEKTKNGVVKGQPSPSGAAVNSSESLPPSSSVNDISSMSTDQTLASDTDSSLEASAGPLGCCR

[3] = system: 12Z endometriotic epithelial cells; assay: IL-1β-stimulated pro-inflammatory gene expression (qPCR) in 12Z cells; type: cell-based, human; conditions: relative to bentamapimod
Description: These studies indicate that NanoBRET assays are an innovative technical platform to measure target engagement of CDD JNK inhibitors with the target JNK1, JNK2 or JNK3. As further evidence that JNK inhibitors address disease-relevant endpoints, biological responses of JNK inhibitors are provided herein, as measured in target tissue cellular models. 12Z immortalized endometriotic epithelial cells and patient-derived endometriotic stromal cells have been cultured with reference compound bentamapimod, CDD-2628, and CDD-2728. To exemplify the effects of CDD-2628 and CDD-2728 in the endometrial cell cultures, gene expression was measured using qPCR (expressed as fold-change relative to GAPDH, a housekeeping gene that is not affected by culture treatment effects) that reflect synthesis of inflammatory lipids (PTGS2), transformation of cells to a more migration and invasive potential (MMP-3) and chemoattractant cytokines to recruit pro-inflammatory immune cells (IL-6, IL-8).
In the culture systems employed in FIGS. 12A-12J, FIGS. 13A-13B, FIGS. 14A-14H, FIGS. 15A-15H, and FIGS. 16A-16F, the treatment of cells with IL-1β is used to mimic the peritoneal environment where IL-1β is most frequently measured at higher concentrations in patients with endometriosis (0.1 ng/mL-1 ng/mL) than in unaffected women (<0.01 ng/mL). The use of IL-1β to mimic the pro-inflammatory environment is a common method in cellular assays for endometriosis research. Although the concentrations of IL-1β in these cell cultures are higher than measured in peritoneal fluid, there are multiple other pro-inflammatory cytokines in peritoneal fluid that contribute to the pro-inflammatory environment.
Specifically, 12Z cells were plated at a density of 1×10^5 cells/well in a 12-well tissue culture plate, serum-starved overnight (17-18 h), pre-treated with vehicle (DMSO) or JNK inhibitor for 30 minutes, then stimulated with 10 ng/ml IL-1β in the presence or absence of the JNK inhibitors for 6 hours. After the 6-hour treatment, mRNA was extracted from the cells using the Qiagen RNEasy mini isolation kit and […] of mRNA was reverse transcribed into cDNA using the qScript cDNA Supermix (Quanta Biosciences). cDNA was amplified using SYBR Green Master Mix (Applied Biosystems) with quantitative Real Time PCR (BioRad CFX) using pre-designed and validated primers specific for genes encoding IL6, IL8, PTGS2/COX2, and MMP3 (BioRad). Relative quantification of these specific genes was calculated by the ΔΔCt method, normalizing their abundance relative to the internal housekeeping gene, GAPDH, followed by quantification relative to the vehicle-treated cells. Statistical analyses and visualizations were performed using a One Way ANOVA with a Tukey's multiple comparison post-hoc test on GraphPad Prism version 9.

JNK1 [4] = target: T2, JNK1 (Homo sapiens, UniProt P45983); assay: JNK1 kinase (intrinsic ATPase, Kinase-Glo) assay; type: biochemical
T2 sequence (P45983 whole entry): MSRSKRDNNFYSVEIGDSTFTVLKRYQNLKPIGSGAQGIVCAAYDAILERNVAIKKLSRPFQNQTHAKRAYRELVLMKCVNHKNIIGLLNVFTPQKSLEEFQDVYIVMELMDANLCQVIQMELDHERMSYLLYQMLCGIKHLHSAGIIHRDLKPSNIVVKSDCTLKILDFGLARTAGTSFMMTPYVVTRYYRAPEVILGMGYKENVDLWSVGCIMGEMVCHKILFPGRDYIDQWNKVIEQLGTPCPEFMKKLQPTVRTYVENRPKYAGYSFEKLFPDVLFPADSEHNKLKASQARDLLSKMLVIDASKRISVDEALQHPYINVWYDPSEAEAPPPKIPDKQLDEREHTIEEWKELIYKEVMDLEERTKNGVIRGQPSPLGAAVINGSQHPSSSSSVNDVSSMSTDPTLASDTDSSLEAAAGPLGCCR
Experimental: JNK1, JNK2, and JNK3 hydrolyze ATP to ADP without any peptide substrates. This allows a very robust and fast endpoint assay where the remaining concentration of ATP is measured (BMG ClarioStar Plus plate reader) using the Kinase-Glo Assay kit from Promega (V6711). A luminescence signal is measured, which is produced by the catalytic conversion of beetle luciferin to oxyluciferin by luciferase. Potential inhibition of luciferase (i.e., false negatives) is easily detected, because assays without kinase are always included, and less ATP than is present in this control reaction could also indicate an inhibition of luciferase, which can be excluded by a counter screen with only luciferase.
To mitigate violation of the linear initial velocity principle, which is a problem in end-point assays when doing dose-responses, the enzyme concentration was carefully optimized, in a total assay volume of 25 μL. […] The kinase reaction was done for 30 or 60 min at 30° C., and detection of leftover ATP was measured according to Promega's protocol. […] Fractional activities were obtained from normalized data. Non-linear regression (GraphPad Prism7) and a modified Morrison equation for tight binding was used to determine apparent Ki values for inhibitors, assuming no particular mode of inhibition. An orthogonal binding assay (LanthaScreen) was outsourced to ThermoFisher Scientific's SelectScreen Services to determine IC50 values.

[5] = In vitro metabolism in mouse liver microsomes; conditions: mouse, microsomes
Experimental: (§1) The target product profile seeks to deliver JNK inhibitor as a once daily oral administration. To prioritize compounds for further development, in vitro metabolism of several CDD JNK inhibitors were determined to approximate the plasma half-life and the rate of metabolism of the compounds in vivo.

JNK3 [6] = target: T1, JNK3; assay: Promega NanoBRET intracellular target engagement (tracer K10 displacement), JNK3; type: cell-based
JNK2 [7] = target: T3, JNK2 (Homo sapiens, UniProt P45984); assay: JNK2 kinase (intrinsic ATPase, Kinase-Glo) assay; type: biochemical; conditions: Table 3a; read-out: Kd JNK2
T3 sequence (P45984 whole entry): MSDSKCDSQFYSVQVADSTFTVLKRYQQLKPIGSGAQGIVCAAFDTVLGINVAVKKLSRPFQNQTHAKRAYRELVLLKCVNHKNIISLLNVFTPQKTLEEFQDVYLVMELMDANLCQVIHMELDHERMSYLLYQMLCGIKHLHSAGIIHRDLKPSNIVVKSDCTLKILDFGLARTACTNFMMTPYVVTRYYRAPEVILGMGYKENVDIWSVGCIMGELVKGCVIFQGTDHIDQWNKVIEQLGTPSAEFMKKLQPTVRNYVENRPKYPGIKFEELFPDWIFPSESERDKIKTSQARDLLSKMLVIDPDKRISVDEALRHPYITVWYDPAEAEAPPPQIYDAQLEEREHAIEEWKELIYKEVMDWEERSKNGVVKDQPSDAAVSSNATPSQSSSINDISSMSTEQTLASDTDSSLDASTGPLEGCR

[8] = In vitro metabolism in human liver microsomes; conditions: human, microsomes
Experimental: as §1

JNK2 [9] = target: T3, JNK2; assay: Promega NanoBRET intracellular target engagement (tracer K10 displacement), JNK2; type: cell-based
JNK1 [10] = target: T2, JNK1; assay: Promega NanoBRET intracellular target engagement (tracer K10 displacement), JNK1; type: cell-based
hVPS34 = target: T4, hVPS34 (Homo sapiens, UniProt Q8NEB9); assay: ThermoFisher SelectScreen, hVPS34; type: binding; conditions: Table 4
T4 construct: purchased ThermoFisher (SelectScreen, outsourced service)
T4 sequence (Q8NEB9 whole entry): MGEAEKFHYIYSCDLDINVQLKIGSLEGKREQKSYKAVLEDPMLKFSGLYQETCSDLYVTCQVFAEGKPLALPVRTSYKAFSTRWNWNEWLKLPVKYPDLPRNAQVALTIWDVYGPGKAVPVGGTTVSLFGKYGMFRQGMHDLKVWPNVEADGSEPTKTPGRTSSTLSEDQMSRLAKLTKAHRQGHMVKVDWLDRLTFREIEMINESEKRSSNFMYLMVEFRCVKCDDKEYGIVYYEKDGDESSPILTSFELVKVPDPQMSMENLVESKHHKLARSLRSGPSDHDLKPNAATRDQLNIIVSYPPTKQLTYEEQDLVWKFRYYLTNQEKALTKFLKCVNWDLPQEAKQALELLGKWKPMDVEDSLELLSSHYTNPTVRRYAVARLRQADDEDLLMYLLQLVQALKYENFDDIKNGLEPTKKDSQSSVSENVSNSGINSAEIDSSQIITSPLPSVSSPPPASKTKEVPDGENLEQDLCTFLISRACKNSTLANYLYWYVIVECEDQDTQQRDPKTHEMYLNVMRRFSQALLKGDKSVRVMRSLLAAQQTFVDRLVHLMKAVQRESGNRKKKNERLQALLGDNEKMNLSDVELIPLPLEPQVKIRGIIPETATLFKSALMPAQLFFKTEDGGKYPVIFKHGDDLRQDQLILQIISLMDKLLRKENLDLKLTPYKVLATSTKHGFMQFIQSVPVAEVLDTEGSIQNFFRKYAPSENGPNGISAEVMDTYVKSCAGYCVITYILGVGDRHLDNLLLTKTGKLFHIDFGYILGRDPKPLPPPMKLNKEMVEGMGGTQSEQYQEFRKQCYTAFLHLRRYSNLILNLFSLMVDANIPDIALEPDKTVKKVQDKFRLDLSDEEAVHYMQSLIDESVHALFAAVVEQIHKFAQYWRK
Experimental: To mitigate violation of the linear initial velocity principle, which is a problem in end-point assays when doing dose-responses, the enzyme concentration was carefully optimized, in a total assay volume of 25 μL. The assay was performed using 10 μM ATP, 0.02% Tween-20, kinase buffer from Cell Signaling (#9802) in white 384-well plates. The kinase reaction was done for 30 or 60 min at 30° C., and detection of leftover ATP was measured according to Promega's protocol. […] Fractional activities were obtained from normalized data. Non-linear regression (GraphPad Prism7) and a modified Morrison equation for tight binding was used to determine apparent Ki values for inhibitors, assuming no particular mode of inhibition. An orthogonal binding assay (LanthaScreen) was outsourced to ThermoFisher Scientific's SelectScreen Services to determine IC50 values.
One of the earliest compounds to be synthesized with favorable enzymatic activity towards JNK1 and JNK3 was CDD-2346. A KINOMEscan was performed for CDD-2346 to establish whether the selectivity of this chemical scaffold was suitable or required optimization. […] To confirm that the activity against each kinase was a true result and not a false positive, CDD-2346 was evaluated in kinase assays using ThermoFisher SelectScreen platform. The results from these assays are provided herein (Table 4). The important innovative steps described are the optimization of selectivity a) for JNK isoforms; b) for kinases considered “in-pathway”; and c) to avoid kinases considered “out-of-pathway”.

CSNK1E = target: T5, CSNK1E (Homo sapiens, UniProt P49674); assay: ThermoFisher SelectScreen, CSNK1E; type: binding
T5 construct: purchased ThermoFisher (SelectScreen)
T5 sequence (P49674 whole entry): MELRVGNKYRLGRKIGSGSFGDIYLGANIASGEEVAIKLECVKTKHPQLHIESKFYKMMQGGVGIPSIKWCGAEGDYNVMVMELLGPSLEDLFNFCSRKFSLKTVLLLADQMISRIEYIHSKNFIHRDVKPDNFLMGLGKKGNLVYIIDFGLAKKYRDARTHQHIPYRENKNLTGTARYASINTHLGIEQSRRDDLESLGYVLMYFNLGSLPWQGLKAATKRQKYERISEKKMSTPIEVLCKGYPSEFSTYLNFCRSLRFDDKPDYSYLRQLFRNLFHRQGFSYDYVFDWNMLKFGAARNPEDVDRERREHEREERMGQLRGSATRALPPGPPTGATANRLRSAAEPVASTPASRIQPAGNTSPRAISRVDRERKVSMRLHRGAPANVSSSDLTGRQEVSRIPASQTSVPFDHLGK

MEK4 = target: T6, MEK4 (Homo sapiens, UniProt P45985); assay: ThermoFisher SelectScreen, MEK4; type: binding
T6 construct: purchased ThermoFisher (SelectScreen)
T6 sequence (P45985 1-399): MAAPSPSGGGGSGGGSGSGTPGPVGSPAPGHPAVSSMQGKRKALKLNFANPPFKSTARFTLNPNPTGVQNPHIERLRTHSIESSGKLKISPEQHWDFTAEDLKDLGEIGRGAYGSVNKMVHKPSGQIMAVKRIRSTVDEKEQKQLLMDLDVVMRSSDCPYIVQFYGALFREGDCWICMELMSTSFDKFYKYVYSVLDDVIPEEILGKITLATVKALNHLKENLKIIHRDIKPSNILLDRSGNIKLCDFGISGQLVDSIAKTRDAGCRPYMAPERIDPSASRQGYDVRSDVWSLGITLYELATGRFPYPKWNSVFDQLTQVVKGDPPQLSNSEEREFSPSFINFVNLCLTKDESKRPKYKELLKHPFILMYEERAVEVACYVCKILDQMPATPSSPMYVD

JNK3 [11] = target: T1, JNK3; assay: ThermoFisher SelectScreen, JNK3; type: binding

Row | Compound | Kd (JNK3 [2]) [nM] | Kd (JNK1 [4]) [nM] | half-life [5] [min] | IC50 (JNK3 [6]) [nM] | Kd (JNK2 [7]) [nM] | half-life [8] [min] | solubility (Solubility) [µM] | IC50 (JNK2 [9]) [nM] | IC50 (JNK1 [10]) [nM] | Kd (hVPS34) [nM] | Kd (CSNK1E) [nM] | Kd (MEK4) [nM] | Kd (JNK3 [11]) [nM] | phosphorylation of JNK1 (P46) and JNK2 (P54) [1] | phosphorylation of Jun at pSer63 and pSer73 [1] | IL-6 expression [3] | IL-8 expression [3] | MMP-3 expression [3] | PTGS2 expression [3]
1 | Oc1c2ccccc2c2c3c(cccc13)N=N2 [SP600125, reference compound] | – | – | – | – | – | – | – | – | – | – | – | – | – | MEK4-dependent phosphorylation of JNK1 and JNK2 | inhibits pSer63 and pSer73 Jun | – | – | – | –
2 | CNCc1ccc(NC(=O)c2ccn3ncc(-c4cncc5ccccc45)c3c2)cc1 [CDD-2347, 3-(isoquinolin-4-yl)-N-(4-((methylamino)methyl)phenyl)pyrazolo[1,5-a]pyridine-5-carboxamide] | 1.38 ± 0.21 | 0.39 ± 0.11 | 33.1 | 2000 | 1.7 ± 0.12 | 30.3 | 134 (≈ 54.7 µg/mL) | 990 | 2200 | 776 | 3180 | 483 | 1.38 | – | – | – | – | – | –
3 | CN(C)C(=O)c1cc(NC(=O)c2nc3c(-c4cnc5[nH]ccc5c4)cccc3s2)ccc1O [CDD-2856, N-(3-(dimethylcarbamoyl)-4-hydroxyphenyl)-4-(1H-pyrrolo[2,3-b]pyridin-5-yl)benzo[d]thiazole-2-carboxamide] | 1.03 ± 0.07 | 0.27 ± 0.08 | 55.5 | 2200 | 3.14 ± 0.33 | 225 | 3.8 (≈ 1.74 µg/mL) | 1100 | 1000 | – | – | – | – | inhibits the upstream phosphorylation of JNK1 and JNK2 | inhibits phosphorylation more effectively than Tanzisertib | – | – | – | –
4 | CN(C)C(=O)c1ccc(O)c(NC(=O)c2cc3c(-c4cnc5[nH]ccc5c4)cccc3s2)c1 [CDD-2938, N-(5-(dimethylcarbamoyl)-2-hydroxyphenyl)-4-(1H-pyrrolo[2,3-b]pyridin-5-yl)benzo[b]thiophene-2-carboxamide] | 1.41 ± 0.3 | 4.6 ± 1.9 | 24 | 15400 | 1.22 ± 0.27 | 24.3 | 5.4 (≈ 2.47 µg/mL) | 16100 | 11500 | – | – | – | – | – | – | – | – | – | –

Now from value to compound, other results behind:

Row | Kd (JNK3 [2]) [nM] | Kd (JNK1 [4]) [nM] | half-life [5] [min] | IC50 (JNK3 [6]) [nM] | Kd (JNK2 [7]) [nM] | half-life [8] [min] | solubility (Solubility) [µM] | IC50 (JNK2 [9]) [nM] | IC50 (JNK1 [10]) [nM] | Kd (hVPS34) [nM] | Kd (CSNK1E) [nM] | Kd (MEK4) [nM] | Kd (JNK3 [11]) [nM] | Compound | phosphorylation of JNK1 (P46) and JNK2 (P54) [1] | phosphorylation of Jun at pSer63 and pSer73 [1] | IL-6 expression [3] | IL-8 expression [3] | MMP-3 expression [3] | PTGS2 expression [3]
5 | 0.52 ± 0.05 | 1.83 ± 0.26 | 40.6 | 566 | 1.6 ± 0.17 | 98.4 | 7.4 (≈ 3.48 µg/mL) | 520 | 500 | – | – | – | – | COc1ccc(NC(=O)c2cc3c(-c4cnc5[nH]ccc5c4)cccc3s2)cc1C(=O)N(C)C [CDD-2628, N-(3-(dimethylcarbamoyl)-4-methoxyphenyl)-4-(1H-pyrrolo[2,3-b]pyridin-5-yl)benzo[b]thiophene-2-carboxamide] | – | – | concentration-dependent decreases | improved potency; also recorded: more effective than bentamapimod | improved potency; also recorded: more effective than bentamapimod | concentration-dependent decreases
6 | 2.62 ± 0.28 | 0.29 ± 0.13 | 59 | 119 | 1.81 ± 0.19 | 81.6 | 1.1 (≈ 0.546 µg/mL) | 161 | 172 | – | – | – | – | O=C(Nc1ccc(O)c(C(=O)N2CCCCC2)c1)c1cc2c(-c3cnc4[nH]ccc4c3)cccc2s1 [CDD-2634, N-(4-hydroxy-3-(piperidine-1-carbonyl)phenyl)-4-(1H-pyrrolo[2,3-b]pyridin-5-yl)benzo[b]thiophene-2-carboxamide] | – | – | – | more potent inhibitors of IL-8 expression than bentamapimod | – | –
7 | 1.63 ± 0.26 | 0.68 ± 0.08 | 3.5 | 149 | 2.47 ± 0.25 | 18.2 | 1.6 (≈ 0.769 µg/mL) | 230 | 430 | – | – | – | – | O=C(Nc1cccc(C(=O)N2CCCCC2)c1)c1cc2c(-c3cnc4[nH]ccc4c3)cccc2s1 [CDD-2630, N-(3-(piperidine-1-carbonyl)phenyl)-4-(1H-pyrrolo[2,3-b]pyridin-5-yl)benzo[b]thiophene-2-carboxamide] | – | – | – | – | – | –
